Assay results published in patent US11254665B2, “Crystalline sulfamide compound” (CHIA TAI TIANQING PHARMACEUTICAL GROUP CO., LTD., priority 2017, dated 2022).

How the values were obtained:
[1] = Stability influencing factors: high temperature test; format: physicochemical
Method: (§1) In accordance with “Stability Testing of New Drug Substances and Products” in ICH Q1A and “Guidelines for the Stability Testing of Drug Substances and Preparations” in Pharmacopoeia of China, fourth part, 2015 edition, 9001, the stability influencing factors were tested for the crystal of the monohydrate formula II, including high temperature, high humidity and light tests.
(§2) In accordance with “Stability Testing of New Drug Substances and Products” in ICH Q1A and “Guidelines for the Stability Testing of Drug Substances and Preparations” in Pharmacopoeia of China, fourth part, 2015 edition, 9001, the stability influencing factors were tested for the crystal of the compound of formula I, including high temperature and high humidity tests.
(§3) In accordance with “Stability Testing of New Drug Substances and Products” in ICH Q1A and “Guidelines for the Stability Testing of Drug Substances and Preparations” in Pharmacopoeia of China, fourth part, 2015 edition, 9001, the stability influencing factors were tested for the amorphous form of the compound of formula I, including high temperature and high humidity tests.

[2] = Stability influencing factors: high humidity test; format: physicochemical
Method: as §1, §2, §3

Compound: N#Cc1ccnc(N2[C@H](C(=O)N(c3cccc(F)c3)[C@H](C(=O)NC3CC(F)(F)C3)c3ccccc3Cl)CCS2(=O)=O)c1 [amorphous form of the compound of formula I]
- Appearance ([1]; 0 day): White
- Total impurities (%) ([1]; 0 day): 0.28%
- Water (%) ([1]; 0 day): 1.4%
- Appearance ([1]; 40° C., 5 day): White
- Total impurities (%) ([1]; 40° C., 5 day): 0.25%
- Water (%) ([1]; 40° C., 5 day): 1.1%
- Appearance ([1]; 40° C., 10 day): White
- Total impurities (%) ([1]; 40° C., 10 day): 0.28%
- Water (%) ([1]; 40° C., 10 day): 1.0%
- Appearance ([1]; 40° C., 30 day): White
- Total impurities (%) ([1]; 40° C., 30 day): 0.26%
- Water (%) ([1]; 40° C., 30 day): 0.8%
- Appearance ([1]; 60° C., 5 day): White
- Total impurities (%) ([1]; 60° C., 5 day): 0.31%
- Water (%) ([1]; 60° C., 5 day): 0.8%
- Appearance ([1]; 60° C., 10 day): White
- Total impurities (%) ([1]; 60° C., 10 day): 0.27%
- Water (%) ([1]; 60° C., 10 day): 0.6%
- Appearance ([1]; 60° C., 30 day): White
- Total impurities (%) ([1]; 60° C., 30 day): 0.28%
- Water (%) ([1]; 60° C., 30 day): 0.5%
- Appearance ([2]; 0 day): White
- Total impurities (%) ([2]; 0 day): 0.28%
- Water (%) ([2]; 0 day): 1.4%
- Appearance ([2]; 75% RH, 5 day): White
- Total impurities (%) ([2]; 75% RH, 5 day): 0.30%
- Water (%) ([2]; 75% RH, 5 day): 1.7%
- Appearance ([2]; 75% RH, 10 day): White
- Total impurities (%) ([2]; 75% RH, 10 day): 0.30%
- Water (%) ([2]; 75% RH, 10 day): 1.8%
- Appearance ([2]; 75% RH, 30 day): White
- Total impurities (%) ([2]; 75% RH, 30 day): 0.27%
- Water (%) ([2]; 75% RH, 30 day): 1.8%
- Appearance ([2]; 92.5% RH, 5 day): White
- Total impurities (%) ([2]; 92.5% RH, 5 day): 0.30%
- Water (%) ([2]; 92.5% RH, 5 day): 2.1%
- Appearance ([2]; 92.5% RH, 10 day): White
- Total impurities (%) ([2]; 92.5% RH, 10 day): 0.29%
- Water (%) ([2]; 92.5% RH, 10 day): 2.3%
- Appearance ([2]; 92.5% RH, 30 day): White
- Total impurities (%) ([2]; 92.5% RH, 30 day): 0.26%
- Water (%) ([2]; 92.5% RH, 30 day): 2.4%

Compound: N#Cc1ccnc(N2[C@H](C(=O)N(c3cccc(F)c3)[C@H](C(=O)NC3CC(F)(F)C3)c3ccccc3Cl)CCS2(=O)=O)c1 [crystal of the compound of formula I]
- Appearance ([1]; 0 day): White
- Total impurities (%) ([1]; 0 day): 0.39%
- Water (%) ([1]; 0 day): 0.45%
- Appearance ([1]; 40° C., 5 day): White
- Total impurities (%) ([1]; 40° C., 5 day): 0.42%
- Water (%) ([1]; 40° C., 5 day): 0.85%
- Appearance ([1]; 40° C., 12 day): White
- Total impurities (%) ([1]; 40° C., 12 day): 0.37%
- Water (%) ([1]; 40° C., 12 day): 0.85%
- Appearance ([1]; 60° C., 5 day): White
- Total impurities (%) ([1]; 60° C., 5 day): 0.63%
- Water (%) ([1]; 60° C., 5 day): 0.59%
- Appearance ([1]; 60° C., 12 day): White
- Total impurities (%) ([1]; 60° C., 12 day): 0.54%
- Water (%) ([1]; 60° C., 12 day): 0.73%
- Appearance ([2]; 0 day): White
- Total impurities (%) ([2]; 0 day): 0.39%
- Water (%) ([2]; 0 day): 0.45%
- Appearance ([2]; 75% RH, 5 day): White
- Total impurities (%) ([2]; 75% RH, 5 day): 0.43%
- Water (%) ([2]; 75% RH, 5 day): 0.94%
- Appearance ([2]; 75% RH, 12 day): White
- Total impurities (%) ([2]; 75% RH, 12 day): 0.37%
- Water (%) ([2]; 75% RH, 12 day): 1.16%
- Appearance ([2]; 92.5% RH, 5 day): White
- Total impurities (%) ([2]; 92.5% RH, 5 day): 0.47%
- Water (%) ([2]; 92.5% RH, 5 day): 1.58%
- Appearance ([2]; 92.5% RH, 12 day): White
- Total impurities (%) ([2]; 92.5% RH, 12 day): 0.37%
- Water (%) ([2]; 92.5% RH, 12 day): 1.75%
